{"source": "patent US20260256812A1", "about": "“COMPOSITION COMPRISING A COMBINATION OF A CORTICOSTEROID AND A FLAVONOID FOR USE IN TREATING EYE-RELATED DISEASES” (priority 2023, published 2026)", "key": {"[1]": {"test_system": "ARPE-19 cells", "test": "Cytotoxicity evaluation by acid phosphatase assay (APA)", "format": "cell-based, human", "protocol": "ARPE-19 (adult retinal pigment epithelium-19) cell line was cultured using cell culture media containing a 1:1 mixture of DMEM and F-12 nutrient mixture. The media was supplemented with 10% FBS and 1% penicillin-streptomycin antibiotic mixture. During the culture, cells were maintained at 37° C. with 5% CO2 in a humidified incubator and sub-cultured with trypsin upon confluency.\nCytotoxicity evaluation of the drugs, both individually and in combination, was performed using the acid phosphatase assay (APA). The cytotoxicity assay was performed on TA and QCN from 5 to 250 μM and 1 to 250 μM, respectively. After investigating individual drugs, drug combinations were tested as outlined in Table 1.\nInitially ARPE-19 cells were seeded onto a 96-well plate at a seeding density of 5000 cells/well containing 100 μL of cell culture media and cultured for 24 hr. After 24 hr, treatments were added to the wells and incubated for the period of the study (24 h and 48 hr). After the treatment period, media was removed, and cells were washed twice with PBS. Upon washing, 100 μL of 10 mM PNPP substrate dissolved in 0.1 M sodium acetate buffer was added to the wells and incubated for 2 hr. Finally, 50 μL of stop solution (1 M sodium hydroxide) was added and the plate was analysed in the plate reader at 405 nm."}, "[2]": {"test_system": "IL-6", "test": "IL-6 ELISA on ARPE-19 cell supernatants", "format": "cell-based, human", "protocol": "The human IL-6, IL-8, MCP-1, and VEGF-C ELISA kits were used according to the manufacturer's protocol to investigate the cytokine secretions in the cell supernatants. Cells were seeded onto a 24-well plate at a seeding density of 3×10^4 cells/well with 500 μL of cell culture media and cultured for 24 hr. Cells were kept overnight in low serum media (with 1% FBS) to synchronise their growth phase before stimulating inflammation. […] Upon stimulation, cells were exposed to various treatments of drugs alone and in combination for 24 hr. After the treatment duration media conditioned by treated cells were collected and analysed for the cytokines and VEGF-C secretions using the ELISA kits. ELISA was performed according to the manufacturer's protocol."}, "[3]": {"test_system": "VEGF-C", "test": "Anti-VEGF activity, VEGF-C ELISA on LPS-stimulated ARPE-19 cells", "format": "cell-based, human", "protocol": "The human IL-6, IL-8, MCP-1, and VEGF-C ELISA kits were used according to the manufacturer's protocol to investigate the cytokine secretions in the cell supernatants. Cells were seeded onto a 24-well plate at a seeding density of 3×10^4 cells/well with 500 μL of cell culture media and cultured for 24 hr. Cells were kept overnight in low serum media (with 1% FBS) to synchronise their growth phase before stimulating inflammation. After 24 hr cells were stimulated with 10 μg/mL LPS to induce inflammation for a duration of 24 hr. Upon stimulation, cells were exposed to various treatments of drugs alone and in combination for 24 hr. After the treatment duration media conditioned by treated cells were collected and analysed for the cytokines and VEGF-C secretions using the ELISA kits. ELISA was performed according to the manufacturer's protocol."}, "[4]": {"test_system": "ARPE-19 cells", "test": "Scratch (wound healing, cell migration) assay", "format": "cell-based, human", "settings": "QCN 20 μM; TA 100 μM; TA 100+QCN 20 μM; 1% FBS", "protocol": "For the scratch or wound healing assay cells were seeded onto six-well plates with a seeding density of 25×10^4 cells/well. Upon reaching 80-90% confluency, a sterile 200 μL pipette tip was used to scrape the confluent monolayer of cells in a horizontal line. After creating the scratch, cell debris was washed with PBS and the cell culture media containing treatments was added to each well. The scratch was photographed using an Olympus EP50 microscope at 10× magnification at 0, 6, 9, 24, 27 and 30 h. “Image J” software was used to analyse the width of the scratch.\nThe major cause of irreversible vision loss is the exudative form of AMD, which is characterized by CNV where the newly formed blood vessels protrude from the choroid to the retina through Bruch's membrane. Even though the mechanism of CNV is not fully understood, some pathological studies point to the connection between CNV and sub-RPE deposits. Additionally, focal inflammation leads to focal thinning and damage of Bruch's membrane in patients of AMD. RPE cells are essential for the maintenance of photoreceptor cells as they provide nutrients. But the contact between RPE and photoreceptor cells was disrupted due to the accumulation of sub-RPE deposits and the interference of branched blood vessels. […] Upon seeding 25×10^4 cells/well and reaching around 90% confluency, the wounds were created and measured using image ‘J’ software. […]"}, "[5]": {"test": "DPPH antioxidant assay", "protocol": "The DPPH assay was performed in a 96-well plate where 20 μL of methanolic DPPH solution was added to 180 μL of methanolic solutions of treatments. Based on the outcome from anti-inflammatory studies, the higher concentrations of TA and QCN, both individually and in combination were investigated for antioxidant activity (TA 75, 100 μM and QCN 15, 20 μM). This reaction mixture was incubated for 30 min in darkness at room temperature and the absorbance was measured at 517 nm using a microplate reader."}, "[6]": {"test_system": "intracellular ROS in ARPE-19 cells", "test": "DCFH-DA intracellular ROS assay by flow cytometry", "format": "cell-based, human", "procedure": "ARPE-19 cells were seeded onto 6-well plates at a seeding density of 25×10^4 cells/well and incubated for 24 hr. At the 24 hr time point cells were stimulated with stimulants to induce oxidative stress. […] Upon incubation with dye, cells were detached using trypsin and resuspended in PBS for analysis using flow cytometry.\nUpon stimulation and treatment, the intracellular ROS levels were measured using flow cytometry to assess the anti-oxidant effect of the treatments. The oxidation of DCFH-DA to 2′-7′dichlorofluorescein (DCF) was used for the detection of intracellular ROS levels including nitrogen dioxide and hydroxyl radicals. The cells will take up the DCFH-DA dye where cellular esterase cleaves off the acetyl groups, resulting in the formation of DCFH (2′,7′-dichlorodihydrofluorescein). Oxidation of DCFH in the presence of intracellular ROS leads to the formation of DCF. This DCF fluorescent molecule can be detected using a flow cytometer by mean fluorescence intensity (MFI)."}, "[7]": {"settings": "TA 10 to 250 μM, 24 hr and 48 hr"}, "[8]": {"settings": "10 μg/mL LPS 24 hr, then 24 hr treatment"}}, "data": [{"compound": "CC1(C)O[C@@H]2C[C@H]3[C@@H]4CCC5=CC(=O)C=C[C@]5(C)[C@@]4(F)[C@@H](O)C[C@]3(C)[C@]2(C(=O)CO)O1", "note": "[TA, triamcinolone acetonide]", "values": [{"measurement": "cell morphology", "setting": "[1]; [7]", "value": "no changes in cell morphology"}, {"measurement": "viability of cells", "setting": "[1]; [7]", "value": "not affected"}, {"measurement": "concentration showing maximum inhibition of IL-6 expression", "setting": "[2]; [8]", "value": 100, "unit": "µM"}]}, {"compound": "O=c1c(O)c(-c2ccc(O)c(O)c2)oc2cc(O)cc(O)c12", "note": "[QCN, quercetin]", "values": [{"measurement": "cell viability", "setting": "[1]; QCN 1 to 20 μM", "value": "more than 90%"}, {"measurement": "effect on cells at higher concentrations", "setting": "[1]; QCN above 25 μM, up to 250 μM", "value": "toxic effects"}, {"measurement": "cell viability", "setting": "[1]; QCN concentration up to 25 μM, 24 hr and 48 hr", "value": "more than 80%"}, {"measurement": "VEGF-C concentration", "setting": "[3]; QCN 20 μM, control LPS stimulated 1.96±2.05", "value": "0.83 ± 0.02", "unit": "µg/mL"}, {"measurement": "expression of VEGF-C compared to LPS stimulated cells", "setting": "[3]; TA 75, 100 μM, QCN 15, 20 μM, individually and in combination", "value": "better suppression"}, {"measurement": "migration of the cells", "setting": "[4]", "value": "enhanced the migration"}, {"measurement": "IL-6 expression compared to LPS stimulated cells", "setting": "[2]; [8]", "value": "decreased"}, {"measurement": "concentration showing maximum inhibition of IL-6 expression", "setting": "[2]; [8]", "value": 20, "unit": "µM"}, {"measurement": "inhibition of DPPH", "setting": "[5]; QCN 20 μM", "value": "66.71±0.61", "unit": "%"}, {"measurement": "anti-oxidant effect on DPPH free radical", "setting": "[5]; TA 75, 100 μM, QCN 15, 20 μM, 30 min", "value": "strong anti-oxidant effect"}, {"measurement": "generated ROS (MFI) compared to control stimulated stained cells", "setting": "[6]; 300 μM H2O2, TA 75, 100 μM, QCN 15, 20 μM, individually and in combination, 24 hr", "value": "significantly suppressed"}]}, {"compound": "OO", "note": "[H2O2, hydrogen peroxide]", "values": [{"measurement": "cell viability with stimulant", "setting": "[1]; H2O2 200 and 300 μM, up to 48 h", "value": "decrease in cell viability"}, {"measurement": "MFI of stimulated stained cells", "setting": "[6]; HP at 300 μM, unstimulated stained printed as 3.73±0.29, P value <0.05", "value": "2.01±0.10"}]}, {"compound": "lipopolysaccharide [LPS]", "values": [{"measurement": "cytotoxicity of stimulant", "setting": "[1]; LPS 0.5 to 100 μg/mL, up to 48 h", "value": "non-toxic"}, {"measurement": "IL-6 cytokine on stimulation", "setting": "[2]; LPS stimulation from 10 to 50 μg/mL", "value": "consistently increased"}]}]}
